# Experimental data from ChEMBL document CHEMBL1201862, “PubChem BioAssay data set” (2004).
#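 Following 48 hours of exposure in 96-well plates, responses at five concentrations were used to interpolate endpoints linearly. The concentration for 50% growth inhibition is given as GI50.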 Calls of active or inactive are those of the source. Rule as the data show it: active = GI50 up to about 1.1 µM and inactive = higher.
# Experiments:
# Test in all cases: growth of human tumour cells (NCI), 48 h
# LOX IMVI = test system: LOX IMVI
# MDA-MB-231 = test system: MDA-MB-231
# NCI-H23 = test system: NCI-H23
# RXF 393 = test system: RXF 393
# HCC 2998 = test system: HCC 2998
# MDA-MB-435 = test system: MDA-MB-435
# A549 = test system: A549
# Hs-578T = test system: Hs-578T
# UACC-62 = test system: UACC-62
# SK-MEL-28 = test system: SK-MEL-28
# HT-29 = test system: HT-29
# BT-549 = test system: BT-549
# SF-268 = test system: SF-268
# HL-60 = test system: HL-60
# HCT-15 = test system: HCT-15
# NCI/ADR-RES = test system: NCI/ADR-RES
# CCRF-CEM = test system: CCRF-CEM
# SK-OV-3 = test system: SK-OV-3
# UO-31 = test system: UO-31
# U-251 = test system: U-251
# KM12 = test system: KM12
# OVCAR-8 = test system: OVCAR-8
# OVCAR-5 = test system: OVCAR-5
# TK-10 = test system: TK-10
# NCI-H460 = test system: NCI-H460
# COLO 205 = test system: COLO 205
# A498 = test system: A498
# SN12C = test system: SN12C
# EKVX = test system: EKVX
# NCI-H226 = test system: NCI-H226
# OVCAR-3 = test system: OVCAR-3
# MOLT-4 = test system: MOLT-4
# SNB-75 = test system: SNB-75
# K562 = test system: K562
# SW-620 = test system: SW-620
# DU-145 = test system: DU-145
# SK-MEL-5 = test system: SK-MEL-5
# HOP-62 = test system: HOP-62
# T47D = test system: T47D
# CAKI-1 = test system: CAKI-1
# SF-539 = test system: SF-539
# SNB-19 = test system: SNB-19
# UACC-257 = test system: UACC-257
# IGROV-1 = test system: IGROV-1
# PC-3 = test system: PC-3
# ACHN = test system: ACHN
# 786-0 = test system: 786-0
# SF-295 = test system: SF-295
# NCI-H522 = test system: NCI-H522
# Malme-3M = test system: Malme-3M
# MCF7 = test system: MCF7
# MDA-N = test system: MDA-N
# M14 = test system: M14
# HCT-116 = test system: HCT-116
# OVCAR-4 = test system: OVCAR-4
compound,measurement,setting,value
Cc1nc(C)c(Cc2ccccc2)o1,GI50,LOX IMVI,> 100 µM (inactive)
same,GI50,MDA-MB-231,> 100 µM (inactive)
same,GI50,NCI-H23,> 100 µM (inactive)
same,GI50,RXF 393,> 100 µM (inactive)
same,GI50,HCC 2998,> 100 µM (inactive)
same,GI50,MDA-MB-435,> 100 µM (inactive)
same,GI50,A549,> 100 µM (inactive)
same,GI50,Hs-578T,> 100 µM (inactive)
same,GI50,UACC-62,> 100 µM (inactive)
same,GI50,SK-MEL-28,> 100 µM (inactive)
same,GI50,HT-29,> 100 µM (inactive)
same,GI50,BT-549,> 100 µM (inactive)
same,GI50,SF-268,> 100 µM (inactive)
same,GI50,HL-60,> 100 µM (inactive)
same,GI50,HCT-15,> 100 µM
same,GI50,NCI/ADR-RES,> 100 µM (inactive)
same,GI50,CCRF-CEM,> 100 µM (inactive)
same,GI50,SK-OV-3,> 100 µM (inactive)
same,GI50,UO-31,47.6 µM (inactive)
same,GI50,U-251,> 100 µM (inactive)
same,GI50,KM12,> 100 µM (inactive)
same,GI50,OVCAR-8,> 100 µM (inactive)
same,GI50,OVCAR-5,> 100 µM (inactive)
same,GI50,TK-10,> 100 µM (inactive)
same,GI50,NCI-H460,> 100 µM (inactive)
same,GI50,COLO 205,> 100 µM (inactive)
same,GI50,A498,> 100 µM (inactive)
same,GI50,SN12C,> 100 µM (inactive)
same,GI50,EKVX,> 100 µM (inactive)
same,GI50,NCI-H226,> 100 µM (inactive)
same,GI50,OVCAR-3,98.2 µM (inactive)
same,GI50,MOLT-4,> 100 µM (inactive)
same,GI50,SNB-75,41.4 µM (inactive)
same,GI50,K562,> 100 µM (inactive)
same,GI50,SW-620,> 100 µM (inactive)
same,GI50,DU-145,> 100 µM (inactive)
same,GI50,SK-MEL-5,> 100 µM (inactive)
same,GI50,HOP-62,> 100 µM (inactive)
same,GI50,T47D,> 100 µM (inactive)
same,GI50,CAKI-1,> 100 µM (inactive)
same,GI50,SF-539,> 100 µM (inactive)
same,GI50,SNB-19,> 100 µM (inactive)
same,GI50,UACC-257,> 100 µM (inactive)
same,GI50,IGROV-1,> 100 µM (inactive)
same,GI50,PC-3,> 100 µM (inactive)
same,GI50,ACHN,> 100 µM (inactive)
same,GI50,786-0,> 100 µM (inactive)
same,GI50,SF-295,> 100 µM (inactive)
same,GI50,NCI-H522,> 100 µM (inactive)
same,GI50,Malme-3M,> 100 µM (inactive)
same,GI50,MCF7,> 100 µM (inactive)
same,GI50,MDA-N,> 100 µM (inactive)
same,GI50,M14,> 100 µM (inactive)
same,GI50,HCT-116,> 100 µM (inactive)
same,GI50,OVCAR-4,> 100 µM (inactive)
